{"source": "patent US20110212909A1", "about": "“Use of Ginsenoside Compound K in the Preparation of a Medicament for the Prevention and Treatment of Atherosclerosis” (priority 2008, published 2011)", "key": {"[1]": {"system": "macrophage-derived foam cells of rat abdominal cavity", "assay": "Assay of amount of TC and CE in ox-LDL induced macrophage-derived foam cells", "format": "cell-based", "settings": "25 μM, 48 hours, rat foam cells, x ± s, n = 5", "method": "1. Experiment animal: SD rats, male, 200-250 g, bought from the third Military Medical University Experiment Animal Center.\n2. Reagents: RPMI 1640 culture medium free of phenol red bought from Invitrogen company; LDL (115 mg/mL) bought from Peking Union Medical College; total cholesterol kit and free cholesterol kit bought from Shanghai Mind Bioengineering Limited Company; ginsenoside compound K (hereinafter being called C-K for short. White powders, purity 99%), provided by Kunming Nuowei Jinshen Bioengineering limited company supply (batch number: NTGA070521, details see China invention patent 200710066011. X “a method of preparing rare ginsenoside compound K by streptomycete fermentation of Sanchi saponins”).\nLDL was placed into PBS comprising 10 μM Cu^2+, dialysed at 37° C. for 12 h, then was placed into PBS comprising 0.01% EDTA, and dialysed at 4° C. for 24 hours before stopping oxidization, then was subjected to filtration sterilization, and stored for use.\n4. Culture of macrophage and establishment of foam cells model (available literature: Jia Yi, Li Xiaohui, Xing Mao, Hei Xuefeng, Liu Ya, He Cuiyao. Studies on affect of various combinations of 3 sorts of monomers in total panax notoginsenosides on formation of mouse macrophage-derived foam cells. Journal of China Pharmacy, 2008, 19 (2), 881-883.)\neach rat were intraperitoneally injected with 2 mL RPMI 1640 culture solution free of serum and phenol red, and it was sacrificed by cervical dislocation after 20 minutes, and was soaked in 75% ethanol for 10 minutes, then rat's belly was cut open, and fluids in abdominal cavity were collected, and centrifugated at 750 r/min for 5 minutes, and then cells were collected, and cells concentrations were adjusted to […] by using RPMI 1640 culture solution which were free of phenol red and comprised 10% Fetal Calf Serum. 10 pieces of 6 wells plate was added 1 mL cells suspension per well, and was placed into an incubator of 5% CO2 at 37 °C, and cultured for two hours, then supernatant was discarded, and nonadhesive cells was washed by using PBS. Original culture medium was discarded. Culture was carried out for 48 hours after adding 5 mL culture medium comprising 20 mg/L ox-LDL, and thereby foam cells were formed.\n[…] were divided into ox-LDL model group, pyrrolidine dithiocarbamate (PDTC) (drugs source: Sigma), control group and C-K interference group. Each group had 5 pieces of plates. […]\nCulture solution was aspirated, and lipid in foam cells was extracted by Folch method (reference: Folch J et al, A simple method for the isolation and purification of total lipides from animal tissues. J Biol Chem, 1957, 226 (1): 497-509), according to direction for use of kit.\nData was expressed as x±s, and variance analysis was carried out between groups by SPSS 13.0 software."}, "CD36 mRNA": {"system": "CD36 mRNA", "assay": "Real-time quantitative PCR of CD36 mRNA in foam cells", "format": "cell-based", "settings": "25 μM, rat foam cells", "method": "FIG. 1 provides effects of a ginsenoside compound K (C-K, 25 μM) and pyrrolidine dithiocarbamate (PDTC, 25 μM) on the foam cell CD36 mRNA expression. a: P<0.05, vs foam cell group; b: P<0.05, vs PDTC. PDTC (25 μM) C-K (25 μM) (n=5).\n(1) Material and reagents (the same as Example 2).\n(2) real-time quantitative PCR analysis (a reference method: Zhang Yiguan, Li Xiaohui, Fan Jishan, Zhang Haigang, Li Shuhui, Liao Wenqiang, Pang Yan, Jia Yi. Total panax notoginsenosides suppress atherosclerosis formation in rats by means of antiinflammatory and blood fat regulating action. Progress in Modern Biomedicine. 2007, 27(11): 1601-1607).\nData was expressed as x±s, variance analysis were carried out between groups by SPSS 13.0 software."}}, "note": "Marks after values point to notes of the source that are not given here.", "data": [{"smiles": "S=C(S)N1CCCC1", "note": "[PDTC, pyrrolidine dithiocarbamate, reference compound]", "values": [{"measurement": "CE in foam cells", "setting": "[1]; ox-LDL model group 15.24 ± 2.38", "value": "30.63 ± 3.17^a"}, {"measurement": "CE/TC in foam cells", "setting": "[1]; ox-LDL model group 59.56 ± 2.96", "value": "50.29 ± 3.54^a %"}, {"measurement": "TC in foam cells", "setting": "[1]; ox-LDL model group 87.20 ± 2.19", "value": "60.81 ± 2.62^a"}, {"measurement": "change of CD36 mRNA expression in foam cells compared with model group", "setting": "CD36 mRNA", "value": "increased expression"}]}]}
